Earlier results as cited in patent publication US20090093542A1, “Copper antagonist compositions” (priority 2007, published 2009).
Each block holds one compound with its values, some of them ahead of it.

What was measured:
[1] = long-term use in Wilson's disease
[2] = solution of the free base itself

solubility in alcohol (alcohol): slightly soluble
solubility in ether, acetone, benzene, and carbon tetrachloride (ether, acetone, benzene, carbon tetrachloride): insoluble
solubility in water (water): freely soluble
Compound: CC(C)(S)[C@@H](N)C(=O)O [Penicillamine, 3-mercapto-D-valine]

Compound: CC(=O)[O-].CC(=O)[O-].[Zn+2] [Zinc acetate]
long-term or major side effects in patients [1]: has not shown any long-term or major side effects

pH of a solution [2]: 14
Compound: NCCNCCNCCN [trientine, triethylenetetramine]
